Experimental data taken from ChEMBL document CHEMBL4359916, “Design, synthesis and biological evaluation of 1-benzyl-5-oxopyrrolidine-2-carboximidamide derivatives as novel neuroprotective agents” (Eur J Med Chem, 2019).
Active and inactive are the calls of the source. No cut-off for these calls is given here.

Tests used:
[1] = system: SH-SY5Y; experiment: Neuroprotective activity against NMDA-induced cell damage in human SH-SY5Y cells assessed as cell viability at 0.5 uM preincubated for 8 hrs followed by NMDA addition and further incubated for 30 mins and measured after 12 hrs by MTT assay relative to control; type: functional; settings: read-out: Activity
[2] = system: SH-SY5Y; experiment: Neuroprotective activity against NMDA-induced cell damage in human SH-SY5Y cells assessed as cell viability at 5 uM preincubated for 8 hrs followed by NMDA addition and further incubated for 30 mins and measured after 12 hrs by MTT assay relative to control; type: functional; settings: read-out: Activity
[3] = system: SH-SY5Y; experiment: Neuroprotective activity against NMDA-induced cell damage in human SH-SY5Y cells assessed as cell viability at 0.05 uM preincubated for 8 hrs followed by NMDA addition and further incubated for 30 mins and measured after 12 hrs by MTT assay relative to control; type: functional; settings: read-out: Activity
[4] = system: Mus musculus; experiment: (§1) Improvement in spatial memory impairment in C57BL/6 mouse model of bilateral common carotid artery occlusion-induced brain ischemia assessed as increase in number of virtual platform crossing at 10 to 50 mg/kg/day, po via gavage at 24 hrs post surgery and 1 hr prior to the test measured on day 14 to 17 by Morris water maze test; type: functional, organism-based
[5] = system: Mus musculus; experiment: Cognitive enhancing effect in C57BL/6 mouse model of bilateral common carotid artery occlusion-induced brain ischemia assessed as effect on total arm entries at 10 to 50 mg/kg/day, po via gavage at 24 hrs post surgery on day 8 after […] of drug administration by Y-maze test; type: functional, organism-based
[6] = system: Mus musculus; experiment: Cognitive enhancing effect in C57BL/6 mouse model of bilateral common carotid artery occlusion-induced brain ischemia at 50 mg/kg/day, po via gavage at 24 hrs post surgery after day 17; type: functional, organism-based
[7] = system: Mus musculus; experiment: Cognitive enhancing effect in C57BL/6 mouse model of bilateral common carotid artery occlusion-induced brain ischemia assessed as increase in spontaneous alternation behavior at 10 to 50 mg/kg/day, po via gavage at 24 hrs post surgery on day 8 after 1 hr drug administration by Y-maze test; type: functional, organism-based
[8] = molecular target: T1, Glutamate [NMDA] receptor (Homo sapiens) (UniProt Q05586+Q12879+Q13224+O15399+O60391+Q14957+Q8TCU5); experiment: Antagonist activity at NMDA receptor in human SH-SY5Y cells assessed as reduction in NMDA-stimulated calcium ion influx at 5 uM measured after 3 hrs by Fluo-3 AM indicator based laser scanning confocal microscopy analysis; type: cell-based
[9] = system: Mus musculus; experiment: as §1, with “time spent in correct quadrant” for “number of virtual platform crossing”; type: functional, organism-based
[10] = system: Mus musculus; experiment: as §1, with “decrease” for “increase”, “escape latency” for “number of virtual platform crossing”; type: functional, organism-based
[11] = system: Mus musculus; experiment: Memory enhancement effect in C57BL/6 mouse model of bilateral common carotid artery occlusion-induced brain ischemia assessed as increase in preferential index at 50 mg/kg/day, po via gavage after 24 hrs post surgery measured on day 9 to 12 after 1 hr by novel object recognition test; type: functional, organism-based
[12] = system: Mus musculus; experiment: as §1, with “swimming distance” for “number of virtual platform crossing”; type: functional, organism-based
[13] = system: Mus musculus; experiment: Improvement in spatial memory impairment in C57BL/6 mouse model of bilateral common carotid artery occlusion-induced brain ischemia at 50 mg/kg/day, po via gavage at 24 hrs post surgery measured on day 9 to 12 by novel object recognition test; type: functional, organism-based
[14] = Clearance in human liver microsomes at 10 uM preincubated for 10 mins followed by addition of NADPH and measured for 5 to 60 mins; type: ADME, Microsome
[15] = system: Mus musculus; experiment: Improvement in visual recognition effect in C57BL/6 mouse model of bilateral common carotid artery occlusion-induced brain ischemia at 50 mg/kg/day, po via gavage at 24 hrs post surgery measured on day 9 to 12 by novel object recognition test; type: functional, organism-based
[16] = system: Mus musculus; experiment: Improvement in spatial memory impairment in C57BL/6 mouse model of bilateral common carotid artery occlusion-induced brain ischemia at 50 mg/kg/day, po via gavage at 24 hrs post surgery after day 17; type: functional, organism-based
[17] = molecular target: T1, Glutamate [NMDA] receptor (Homo sapiens); experiment: Inhibition of NMDA receptor in NMDA-induced human SH-SY5Y cells assessed as increase in phosphorylated ERK1/2 level preincubated for 6 hrs followed by NMDA addition and further incubated for 30 mind and measured after 4 hrs by Western blot analysis; type: cell-based
[18] = system: SH-SY5Y; experiment: Neuroprotective activity in human SH-SY5Y cells assessed as reduction in NMDA-induced NR2B upregulation preincubated for 6 hrs followed by NMDA addition and further incubated for 30 mind and measured after 4 hrs by Western blot analysis; type: functional, cell-based
[19] = Half-life in human liver microsomes at 10 uM preincubated for 10 mins followed by addition of NADPH and measured for 5 to 60 mins; type: ADME, Microsome
[20] = Metabolic stability in human liver microsomes assessed as parent compound remaining at 10 uM measured after 60 mins; type: ADME, Microsome; settings: read-out: Stability
[21] = system: Mus musculus; experiment: Memory enhancement effect in C57BL/6 mouse model of bilateral common carotid artery occlusion-induced brain ischemia assessed as increase in discrimination index at 50 mg/kg/day, po via gavage 24 hrs post surgery measured on day 9 to 12 after 24 hrs by novel object recognition test; type: functional, organism-based

Row | SMILES | viability at 0.5 µM [1] [%] | viability at 5 µM [2] [%] | viability at 0.05 µM [3] [%] | further results
1 | COc1ccc(CNC(=N)[C@@H]2CCC(=O)N2Cc2ccc(C)cc2)cc1 | 21.9 | 29.5 | 19.5 | 
2 | N=C(NCc1ccccc1)[C@@H]1CCC(=O)N1Cc1ccccc1[N+](=O)[O-] | 28.8 | 25.3 | 10.1 | 
3 | N=C(NCc1ccccc1)[C@@H]1CCC(=O)N1Cc1ccc(F)cc1 | 23.3 | 31.4 | 13.3 | 
4 | COc1ccc(CNC(=N)[C@@H]2CCC(=O)N2Cc2ccc(F)cc2)cc1 | 36.7 | 38.1 | 15.8 | 
5 | Cl.N=C(NCc1ccc(O)cc1)[C@@H]1CCC(=O)N1Cc1ccc(F)cc1 | 42 | 48.6 | 35.2 | Activity [4]: Active; Activity [5]: inactive; Activity [6]: Active; Activity [7]: Active; inhibition [8]: Active; Activity [9]: Active; Activity [10]: Active; Activity [11]: Active; Activity [12]: Active; Activity [13]: Active; CLint [14]: < 9.6 µL/min/mg; Activity [15]: Active; Activity [16]: Active; inhibition [17]: Active; Activity [18]: Active; half-life at 10 µM [19]: > 2.42 h; remaining at 1 h, 10 µM [20]: 92.7%; Activity [21]: Active
6 | COc1ccc(CNC(=N)[C@@H]2CCC(=O)N2Cc2ccc([N+](=O)[O-])cc2)cc1 | 25.4 | 35.2 | 14.3 | 
7 | COc1ccc(CNC(=N)[C@@H]2CCC(=O)N2Cc2ccccc2)cc1 | 23.6 | 19.5 | 7.1 | 
8 | N=C(NCc1ccccc1)[C@@H]1CCC(=O)N1Cc1ccccc1 | 27.9 | 20.7 | 16.6 | 
9 | COc1ccc(CN2C(=O)CC[C@H]2C(=N)NCc2ccc(O)cc2)cc1 | 20.5 | 26.6 | 16 | 
10 | C[C@@H]([C@@H](O)c1ccc(O)cc1)N1CCC(Cc2ccccc2)CC1 [(S)-IFENPRODIL] | 40.4 | 41 | 29.4 | inhibition [8]: Active
11 | COc1ccc(CNC(=N)[C@@H]2CCC(=O)N2Cc2ccc(OC)cc2)cc1 | 24.8 | 33.6 | 24.2 | 
12 | N=C(NCc1ccccc1)[C@@H]1CCC(=O)N1Cc1ccc([N+](=O)[O-])cc1 | 24 | 25.6 | 13.7 | 
13 | Cc1ccc(CN2C(=O)CC[C@H]2C(=N)NCc2ccc(O)cc2)cc1 | 21.9 | 23.8 | 20.5 | 
14 | COc1ccc(CN2C(=O)CC[C@H]2C(=N)NCc2ccccc2)cc1 | 21 | 17.9 | 12.3 | 
15 | N=C(NCc1ccc(O)cc1)[C@@H]1CCC(=O)N1Cc1ccc([N+](=O)[O-])cc1 | 31.3 | 34.5 | 25.9 | 
16 | COc1ccc(CNC(=N)[C@@H]2CCC(=O)N2Cc2ccccc2[N+](=O)[O-])cc1 | 21.1 | 25.4 | 18.1 | 
17 | Cc1ccc(CN2C(=O)CC[C@H]2C(=N)NCc2ccccc2)cc1 | 23.5 | 24.8 | 17.1 | 
18 | N=C(NCc1ccc(O)cc1)[C@@H]1CCC(=O)N1Cc1ccccc1[N+](=O)[O-] | 26.9 | 30.4 | 20 | 
19 | N=C(NCc1ccc(O)cc1)[C@@H]1CCC(=O)N1Cc1ccccc1 | 35.4 | 37.6 | 19.8 | 
